Tests used:
[1] = system: human keratinocyte cell lines (HACAT); test: MTT cytotoxicity test, HACAT; assay type: cell-based
[2] = system: human fibroblast cell lines (HFF); test: MTT cytotoxicity test, HFF; assay type: cell-based
[3] = system: human endothelial cells from the umbilical vein (HUVEC); test: MTT cytotoxicity test, HUVEC; assay type: cell-based
[4] = In vitro-ex vivo skin permeation across human epidermis, Franz diffusion cells; assay type: in vitro ADME; conditions: 4% w/v, up to 24 hours
Experimental: The Franz diffusion cells comprise two compartments, one containing the active ingredient (donor vehicle) and the other containing a receiving solution, separated by a slice of human epidermis. The vertical cells used in the actual experimental unit have a wider column than that in the original Franz type of diffusion cell, and the decanter shape was dispensed with. These have a diffusion area of 0.636 cm^2 and a receiving compartment of approximately 3.0 ml. The receiving volume in each cell is individually calibrated and equipped with a magnetic stirrer. Human epidermis was selected as the membrane for skin permeation studies. The skin used in the studies was obtained from the abdominal skin of a donor who underwent cosmetic surgery. The skin samples were prepared following an internal standard procedure. The full thickness of the skin was sealed in evacuated plastic bags and frozen at -20° C. within 6 hours of removal. Before the experiments the skin was thawed out at ambient temperature and excess fat was completely removed. […] The integrity of the skin was evaluated by measuring the impedance of each sample (Agilent LCR Meter 4263B). Subsequently the epidermis was mounted in the Franz diffusion cell, the receiving compartment of which was filled with saline solution (NaCl 0.9% w/v) filtered using a 0.22 μm filter (VWR, nylon membrane). […]

in vitro = conditions: dog, MDCK, pH 7.4
Experimental: (§1) MDCK cells were kept in Minimal Essential Medium Eagle (EMEM) containing 10% FBS, 2 nM of fresh L-glutamine and 2 nM of penicillin-streptomycin. The culture inserts were inseminated with 664000 cells per cm^2 (0.33 cm^2 per insert). The monolayers of MDCK were cultured for three days before use. The monolayers were washed with Hanks Balanced Salt Solution (HBSS+10 nM Hepes pH 7.4) transport medium; the electrical resistance of each monolayer was measured at 37° C. using a Millicell ERS-2 (Millipore). Background resistance values were subtracted from the resistance values of treated wells of monolayer. The resulting value was multiplied by the area of the membrane (0.33 cm^2) to calculate the transepithelial electrical resistance values (TEER (Ω cm^2)) for each monolayer. TEER values indicate the degree of confluence of the monolayer and the development of tight junctions. If the resistance was <200 Ω cm^2 the test was continued. MDCK monolayers having TEER values>200 Ω cm^2 were not used. The donor solutions in the transport test comprised 100 μM of test compound in the transport medium containing 100 nM of fluorescein isocyanate-dextran. The transport tests were performed using 0.250 ml of apical donor solution and 1 ml of basolateral acceptor solution (transport medium, pH 7.4). […] The monolayers were incubated with donor and acceptor solutions for 120 minutes at 37° C. The basolateral compartments were sampled after 120 minutes and analysed using LC-MS/MS, together with an aliquot of the donor solutions in the transport test (100 μM of the test compound) corresponding to (sample at time zero).
(§2) in which dQ/dt is the permeation velocity, CA is the initial concentration in the donor compartment and A is the surface area of the filter. […]
(§3) The integrated peak area for the LC-MS/MS chromatograms was used as the instrument response (INRE) for relative quantification of the test material.
(§4) The permeability of the test material was then evaluated by comparing the INRE for five replicates after two hours incubation, on the basis of the INRE response to the t0 samples.

[5] = with chemical potentiating agents, including oleic acid; cited from earlier work

Experimental for MDCK monolayers: as §1, §2, §3, §4

Row | SMILES | cytotoxicity (MTT test) [1] | cytotoxicity (MTT test) [2] | cytotoxicity (MTT test) [3] | skin permeability values (permeate over time) ([4]; aqueous solvent, FIG. 1) | skin permeability values (permeate over time) ([4]; triacetin solvent, FIG. 2) | permeability value (in words) (MDCK monolayers) | Papp A→B at 120 min, 100 µM (in vitro) | administered flow through human skin [5]
1 | Cn1c(=O)c2c(ncn2CC2OCCO2)n(C)c1=O [Doxofylline, 2-(7′-theophyllinemethyl)-1,3-dioxolane] | no cytotoxicity | no cytotoxicity | no cytotoxicity | substantially higher than those for theophylline | substantially higher than those for theophylline | high permeability value | 22.7 ×10⁻⁶ cm/s | 
2 | COCCc1ccc(OCC(O)CNC(C)C)cc1 (stereo not drawn) [Metoprolol, metoprolol] |  |  |  |  |  |  | 6.52 ×10⁻⁶ cm/s | 
3 | Cn1c(=O)c2[nH]cnc2n(C)c1=O [Theophylline, theophylline] |  |  |  |  |  |  |  | insufficient

— patent US20180280400A1, “TRANSDERMAL ADMINISTRATION SYSTEM FOR USE IN THE TREATMENT OF CHRONIC BRONCHOPULMONARY DISEASES” (ABC FARMACEUTICI S.P.A., priority 2013, published 2018)
